{"source": "patent US20170281642A1", "about": "“METHODS OF TREATING ACUTE MYELOID LEUKEMIA OR ACUTE LYMPHOID LEUKEMIA USING PHARMACEUTICAL COMPOSITIONS CONTAINING THIENOTRIAZOLODIAZEPINE COMPOUNDS” (ONCOETHIX GmbH, priority 2014, published 2017)", "key": {"BRD3": {"system": "BRD3", "assay": "BRD3 protein levels in acute leukemia cell lines", "format": "cell-based", "settings": "500 nM; all cell lines evaluated"}, "[1]": {"system": "caspase-3 and cytochrome c", "assay": "ex vivo caspase-3 activation and mitochondrial cytochrome c release in AML patient samples", "format": "cell-based, human", "settings": "samples from three AML patients", "experimental": "(§1) Apoptosis, mRNA and protein expression were evaluated in BM mononuclear cells obtained from representative newly diagnosed or relapsed ALL and AML patients, see Table 7, treated in the context of an ongoing Phase Ib study with compound (1-1) and for whom sufficient material for analysis was available. Apoptosis induction by exposure to 500 nM compound (1-1) for 72 h was variable among the patient samples tested (FIG. 15A)."}, "HEXIM1": {"system": "HEXIM1", "assay": "HEXIM1 mRNA and protein expression in acute leukemia cell lines", "format": "cell-based"}, "AML and ALL cell lines [2]": {"system": "AML and ALL cell lines", "assay": "cell cycle analysis", "format": "cell-based", "settings": "500 nM, 48 h"}, "c-MYC [3]": {"system": "c-MYC", "assay": "c-MYC mRNA (quantitative RT-PCR) and protein (Western blotting) expression in acute leukemia cell lines", "format": "cell-based", "settings": "500 nM"}, "AML and ALL cell lines [4]": {"system": "AML and ALL cell lines", "assay": "apoptosis by Annexin V staining and PI uptake", "format": "cell-based", "settings": "72 h; for apoptotic cells: 500 nM", "experimental": "(§2) At 500 nM compound (1-1), 30-90% of cells were apoptotic in five of nine AML cell lines (HEL, NB4, NOMO-1, OCI-AML3, KASUMI) and 50-90% in two of four ALL cell lines (JURKAT and RS4-11; FIG. 14C)."}, "c-MYC [5]": {"system": "c-MYC", "assay": "ex vivo c-MYC mRNA and protein expression in patient samples", "format": "cell-based, human", "settings": "500 nM", "experimental": "as §1"}, "BRD2/3/4": {"system": "BRD2/3/4", "assay": "BRD2/3/4 expression in acute leukemia cell lines", "format": "cell-based", "settings": "500 nM, 48 h"}, "[6]": {"system": "nine AML and four ALL cell lines", "assay": "cell viability, MTT assay", "format": "cell-based", "experimental": "Cellular effects of compound (1-1) in various acute leukemia subtypes were evaluated. Cell viability after compound (1-1) exposure was evaluated with the MTT assay in nine AML and four ALL cell lines. Significant growth inhibition, defined as submicromolar IC50, was found in six of nine AML cell lines and all four ALL cell lines tested. The K562, KG1a and HL60 AML cell lines were resistant to compound (1-1)."}, "BRD2 [7]": {"system": "BRD2", "assay": "BRD2 protein expression in acute leukemia cell lines", "format": "cell-based", "settings": "500 nM; most cell lines (OCI-AML3, JURKAT, RS4-11, NB4, NOMO-1, HL60)"}, "[8]": {"system": "BM mononuclear cells from ALL and AML patients", "assay": "ex vivo apoptosis in BM mononuclear cells of ALL and AML patients", "format": "cell-based, human", "settings": "500 nM, 72 h", "experimental": "as §1"}, "[9]": {"system": "caspase-3 and cytochrome c", "assay": "caspase-3 activation and cytochrome c release in cell lines", "format": "cell-based", "settings": "500 nM, 72 h", "experimental": "as §2"}, "BRD4": {"system": "BRD4", "assay": "BRD4 protein expression in acute leukemia cell lines", "format": "cell-based", "settings": "500 nM; only OCI-AML3, NB4 and K562 cell lines"}, "BRD2 [10]": {"system": "BRD2", "assay": "ex vivo BRD2 protein expression in primary AML samples", "format": "cell-based, human", "settings": "500 nM, 72 h; three primary AML samples"}}, "note": "“Also recorded” adds a separate entry of the source.", "data": [{"smiles": "Cc1sc2c(c1C)C(c1ccc(Cl)cc1)=N[C@@H](CC(=O)Nc1ccc(O)cc1)c1nnc(C)n1-2", "note": "[compound (1-1), 2-[(6S)-4-(4-chlorophenyl)-2,3,9-trimethyl-6H-thienol[3,2-f]-[1,2,4]triazolo[4,3-a][1,4]diazepin-6-yl]-N-(4-hydroxyphenyl)acetamide dihydrate]", "values": [{"measurement": "BRD3 protein levels", "setting": "BRD3", "result": "unmodified"}, {"measurement": "activation of caspase-3", "setting": "[1]", "result": "induced activation"}, {"measurement": "mitochondrial cytochrome c release", "setting": "[1]", "result": "induced"}, {"measurement": "HEXIM1 mRNA expression", "setting": "HEXIM1; 500 nM, 4 and 24 h, K562, HL-60, NB4, NOMO-1, KG1, OCI-AML3, JURKAT, RS4-11", "result": "increased"}, {"measurement": "HEXIM1 protein levels", "setting": "HEXIM1; 500 nM, 24-72 h, OCI-AML3, JURKAT and RS4-11 cell lines, dihydrate", "result": "Increases"}, {"measurement": "HEXIM1 mRNA expression", "setting": "HEXIM1; 500 nM, 24 h, all cell lines except K562", "result": "increased"}, {"measurement": "HEXIM1 mRNA expression, increase", "setting": "HEXIM1; 500 nM, 24 h, compound (1-1) resistant K562 cells", "result": "insignificant (less than twice)"}, {"measurement": "HEXIM1 upregulation, rank among cell lines", "setting": "HEXIM1; OCI-AML3 and RS4-11 cell lines", "result": "highest"}, {"measurement": "cells in the sub-G1 phase", "setting": "AML and ALL cell lines [2]; KG1a, KG1, HEL, KASUMI and JURKAT", "result": "significant increase"}, {"measurement": "transition from G1 to S-phase", "setting": "AML and ALL cell lines [2]; all 13 cell lines", "result": "decreased"}, {"measurement": "c-MYC protein levels", "setting": "c-MYC [3]; 24-72 h, all cell lines evaluated other than KG1 (OCI-AML3, K562, NB4, NOMO-1, HL60, JURKAT, RS4-11), dihydrate", "result": "decreased to a variable extent; also recorded: Decreases"}, {"measurement": "c-MYC gene expression", "setting": "c-MYC [3]; 4 h and 24 h, same cell lines and KG1", "result": "decreased ubiquitously"}, {"measurement": "c-MYC RNA levels", "setting": "c-MYC [3]; 24 h, all AML and ALL cell lines (K562, HL-60, NB4, NOMO-1, KG1, OCI-AML3, JURKAT, RS4-11)", "result": "ubiquitously downregulated"}, {"measurement": "apoptotic cells", "setting": "AML and ALL cell lines [4]; five of nine AML cell lines (HEL, NB4, NOMO-1, OCI-AML3, KASUMI)", "result": "30-90%"}, {"measurement": "apoptotic cells", "setting": "AML and ALL cell lines [4]; two of four ALL cell lines (JURKAT and RS4-11)", "result": "50-90%"}, {"measurement": "apoptosis (Annexin V staining and PI uptake)", "setting": "AML and ALL cell lines [4]; 25 to 500 nM", "result": "significant apoptosis"}, {"measurement": "c-MYC mRNA expression", "setting": "c-MYC [5]; 48 h, seven AML samples and two ALL samples", "result": "downregulated"}, {"measurement": "c-MYC protein expression", "setting": "c-MYC [5]; 72 h, three primary AML samples", "result": "clearly decreased"}, {"measurement": "BRD2, BRD3 and BRD4 mRNA expression", "setting": "BRD2/3/4; HL60 and NOMO-1 cells", "result": "increased"}, {"measurement": "BRD2, BRD3 and BRD4 mRNA expression", "setting": "BRD2/3/4; K562 and NB4 cell lines", "result": "dramatically decreased"}, {"measurement": "BRD2, BRD3 and BRD4 mRNA expression", "setting": "BRD2/3/4; K562 cells", "result": "significantly decreased"}, {"measurement": "BRD2, BRD3 and BRD4 mRNA expression", "setting": "BRD2/3/4; KG1, OCI-AML3, JURKAT, BV-173 and RS4-11", "result": "mild variations"}, {"measurement": "BRD2, BRD3 and BRD4 mRNA expression", "setting": "BRD2/3/4; other cell lines (Example 7)", "result": "minimal to no increases"}, {"measurement": "sensitivity to compound (1-1), MTT", "setting": "[6]; K562, KG1a and HL60 AML cell lines", "result": "resistant"}, {"measurement": "IC50 (growth inhibition, MTT)", "setting": "[6]; six of nine AML cell lines and all four ALL cell lines", "result": "submicromolar"}, {"measurement": "BRD2 protein expression", "setting": "BRD2 [7]", "result": "decrease"}, {"measurement": "apoptosis", "setting": "[8]; 6 of 14 AML patients (4, 8, 9, 14, 16, 18)", "result": "no or a mild increase"}, {"measurement": "increased apoptosis compared to control-treated cells", "setting": "[8]; BM cells from 8 of 14 AML patients (3, 15, 17, 26, 27, 28, 31, 38)", "result": "35-90%"}, {"measurement": "apoptosis", "setting": "[8]; two ALL patients (40 and 43)", "result": "no or a mild increase"}, {"measurement": "caspase-3 activation", "setting": "[9]", "result": "activated"}, {"measurement": "cytochrome c release", "setting": "[9]", "result": "induced"}, {"measurement": "BRD4 protein expression", "setting": "BRD4", "result": "decreased"}, {"measurement": "BRD2 protein expression", "setting": "BRD2 [10]", "result": "clearly decreased"}]}]}
